Test [1] concerns the target human γ-TuRC (centrosome MTOC of human breast cancer cells) (human) (UniProt P23258). The test can be described thus: cell-based or functional assay.
In test [2] the target is T1, human γ-TuRC (Homo sapiens, UniProt P23258+Q9BSJ2).
T1 construct: All other samples use whole-cell extract from human breast cancer cells; endogenous in cells; host or cells: human breast cancer cells (whole-cell extract)
The experiment in a line: In vitro γ-TuRC microtubule nucleation assay. Format: biochemical. The following applies: whole-cell extract from human breast cancer cells; final peptide concentration 60 nM. The protocol: In vitro microtubule nucleation assays were performed in a total volume of 5 μL. That is, 3 μL for the sample and 2 μL of tubulin at a 1:5 ratio of Rhodamine:unlabeled tubulin (Cytoskeleton, Inc.). Total tubulin concentration was 3.75 μg/μL in 2.5× tubulin working buffer (2.5×BRB80: 200 mM PIPES, 2.5 mM MgCl2, 2.5 mM EGTA at pH 6.8 and 2.5 mM GTP). For whole cell extract nucleation analysis with peptide, 2 μL of whole cell extract was added with 1 μL of peptide at 300 nM for a final peptide concentration of 60 nM. This 3 μL combination was added first followed by tubulin working buffer. For samples with no peptide, the 5 μL final volume was comprised of 3 μL RIPA buffer and 2 μL of whole cell extract. The 5 μL reaction was combined on ice, quickly spun and returned to ice before incubating in a 37° C. water bath for 4 minutes. Sample incubation was staggered at 20 s intervals to allow for pipetting. After 4 minutes, 50 μL of 1% glutaraldehyde fixing solution was added and tubes were incubated at room temperature for 3 minutes. Samples were completed by addition of 1 mL 1×BRB80, inverting multiple times to mix. […] Images of multiple fields were collected and the average microtubule number per field was determined.

For test [3], the system named is MDA-MB-231 cells. The experiment in a line: Mitotic arrest after live cell peptide transfection (Chariot) of MDA-MB-231 cells. Format: cell-based, human. The protocol: (§1) MCF-7 and MDA-MB-231 (ATCC) cells were maintained in 25 cm^2 tissue culture treated Corning flasks (Sigma-Aldrich) in DMEM complete medium with Glutamax-1 and supplemented with 10% fetal bovine serum. MCF-7 DMEM complete medium was additionally supplemented with 0.01 mg/mL bovine insulin (Sigma-Aldrich). Flasks were maintained at 37° C. in 5% CO2, 95% air, and cells were passaged every 5-7 days using 1 mL TrypLE (Life Technologies).
(§2) For live cell peptide transfection we used the Chariot system (Active Motif) according to the manufacturer's instructions. Cells were seeded into 35 mm tissue culture-treated dishes containing coverslips and grown in complete medium to ˜60% confluency. 1 μg of Kinesin-14 Tail peptide PγTR (GenScript) was diluted in 100 μL 1×PBS on ice. 6 μL of 1/10 PBS-diluted Chariot reagent was further diluted into 100 μL sterile water on ice in a separate tube. Diluted peptide and diluted Chariot were combined and incubated at room temperature for 30 minutes to allow the Chariot-peptide complex to form. Following incubation, media was aspirated from cells, which were then washed once in 1×PBS. The entire 200 μL volume was added to cells in 400 μL serum-free media and gently rocked to ensure even delivery. Plates were returned to 37° C. for 1 hr. Next, DMEM complete growth medium was added to 2 mL without removing the peptide delivery solution (108 μM peptide in 2 mL). Cells were further incubated at 37° C. overnight and fixed after 24 hours.
Human cells were fixed on glass coverslips in −20° C. methanol for 10 minutes, washed with 1×PBS and permeabilized in 0.5% Triton X-100 for 20 minutes. Following further washes, cells were blocked for 30 minutes in 1% bovine serum albumin/knock out serum replacement (BSA/KOSR). […]
(§3) For statistical analysis of phenotypes, n values were chosen as number of cells per strain needed to ensure adequate power to detect significant outcomes. […] For cell cycle arrest by 1 μg transfection of PγTR, 12 fields at 200× were counted. […]

In test [4] the test system is human MCF-7 breast cancer cells. The experiment in a line: Mitotic arrest after live cell peptide transfection (Chariot) of MCF-7 cells. The class given is cell-based. As for the experimental part: as §1, §2
Human cells were fixed on glass coverslips in −20° C. methanol for 10 minutes, washed with 1×PBS and permeabilized in 0.5% Triton X-100 for 20 minutes. Following further washes, cells were blocked for 30 minutes in 1% bovine serum albumin/knock out serum replacement (BSA/KOSR). For peptide localization to centrosomes, 1 μg/mL of peptide was applied after blocking and before primary antibody application. Antibodies used were primary mouse anti-γ-tubulin monoclonal (1:5,000; Sigma-Aldrich cat. T5326) or primary mouse anti-α-tubulin monoclonal DM1A (1:1,000; Santa Cruz Biotech cat. sc-32293), primary His-tag polyclonal antibody (1:1,000; Cell Signaling cat. 2365), secondary goat anti-mouse Alexa Fluor 488 IgG (1:1,000; Life Technologies cat. A-11001) and secondary goat anti-rabbit Texas Red (1:1,000; Life Technologies cat. T-6391). Antibodies were diluted in 1% BSA/KOSR antibody dilution buffer. […]
as §3

“Also recorded” adds a separate entry of the source. Ends that are not written are not given here.

T1 sequence (P23258 whole entry): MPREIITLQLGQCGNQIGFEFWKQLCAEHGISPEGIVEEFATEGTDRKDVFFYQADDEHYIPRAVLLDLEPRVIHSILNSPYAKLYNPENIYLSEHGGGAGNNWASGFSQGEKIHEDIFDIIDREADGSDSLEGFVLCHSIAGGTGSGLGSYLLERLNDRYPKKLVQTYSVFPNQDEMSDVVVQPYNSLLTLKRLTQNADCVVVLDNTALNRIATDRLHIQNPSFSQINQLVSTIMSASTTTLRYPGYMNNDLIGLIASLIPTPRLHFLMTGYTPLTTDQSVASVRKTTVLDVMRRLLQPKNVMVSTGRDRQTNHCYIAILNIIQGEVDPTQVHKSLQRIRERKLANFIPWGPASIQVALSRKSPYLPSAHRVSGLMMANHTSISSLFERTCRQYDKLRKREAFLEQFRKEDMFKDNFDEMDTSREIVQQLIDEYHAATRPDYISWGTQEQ
T1 sequence (Q9BSJ2 whole entry): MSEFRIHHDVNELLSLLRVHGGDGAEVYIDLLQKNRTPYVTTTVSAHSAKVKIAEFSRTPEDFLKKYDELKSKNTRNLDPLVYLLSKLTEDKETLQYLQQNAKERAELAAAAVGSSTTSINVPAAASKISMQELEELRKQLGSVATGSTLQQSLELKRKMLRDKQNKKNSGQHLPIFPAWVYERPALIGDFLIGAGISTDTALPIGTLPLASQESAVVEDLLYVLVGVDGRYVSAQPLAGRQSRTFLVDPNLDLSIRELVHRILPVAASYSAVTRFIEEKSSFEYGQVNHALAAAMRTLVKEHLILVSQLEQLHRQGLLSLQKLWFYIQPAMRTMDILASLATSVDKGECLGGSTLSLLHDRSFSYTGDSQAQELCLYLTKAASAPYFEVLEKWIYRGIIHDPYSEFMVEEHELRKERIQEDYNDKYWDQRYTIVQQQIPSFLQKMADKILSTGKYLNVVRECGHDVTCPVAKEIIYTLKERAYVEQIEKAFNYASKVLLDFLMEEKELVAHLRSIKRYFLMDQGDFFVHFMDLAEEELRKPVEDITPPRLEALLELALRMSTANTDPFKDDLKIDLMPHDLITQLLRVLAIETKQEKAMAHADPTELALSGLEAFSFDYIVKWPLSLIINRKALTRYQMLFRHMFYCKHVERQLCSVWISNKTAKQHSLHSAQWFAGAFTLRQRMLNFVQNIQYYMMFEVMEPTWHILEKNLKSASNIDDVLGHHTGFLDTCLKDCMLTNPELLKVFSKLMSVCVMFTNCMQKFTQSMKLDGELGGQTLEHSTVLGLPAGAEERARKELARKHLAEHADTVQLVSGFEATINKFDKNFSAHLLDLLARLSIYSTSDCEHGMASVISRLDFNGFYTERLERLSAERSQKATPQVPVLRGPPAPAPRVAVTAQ
Chain of human γ-TuRC (centrosome MTOC of human breast cancer cells) (human) (P23258 whole entry, chain 1 of 2): as the sequence (P23258 whole entry) above
Chain of human γ-TuRC (centrosome MTOC of human breast cancer cells) (human) (Q9BSJ2 whole entry, chain 2 of 2, further chain): as the sequence (Q9BSJ2 whole entry) above

In test [1], “6-His tagged Kinesin-14 Tail peptide PγTR (γ-TuRC targeting and regulatory peptide)” returned a cells arrested in mitosis 24 hours after transfection, MCF-7 of 39% and a cells arrested in mitosis 24 hours after transfection, MDA-MB-231 of 22.6%.

With “YSKFKESAAPQLKDLIGSGAEKDHEYSLQLQ (also: 6-His tag, end not given here) [PγTR, Kinesin-14 Pkl1 Tail peptide, γ-TuRC targeting and regulatory; used 6-His tagged]”, the “block of γ-TuRC microtubule nucleation (in words)” value in test [2] was “potent inhibitor of nucleation; also recorded: blocks the γ-TuRC MTOC nucleation”. Also, the “mitotic arrest (in words)” value in test [3] (MDA-MB-231 (high aggressiveness), live cell transfection) was “can mitotically arrest both the MCF-7 low and MDA-MB-231 high aggressive cell lines with similar efficiency”; in test [4] (MCF-7 (low aggressiveness), live cell transfection), “can mitotically arrest both the MCF-7 low and MDA-MB-231 high aggressive cell lines with similar efficiency”. The “share of cells receiving peptide that were arrested in mitosis” value in test [3] (MDA-MB-231, 24 h, value in brackets in FIG. 13G legend) was 82%; in test [4] (MCF-7, 24 h, value in brackets in FIG. 13G legend), 90%. In addition, the “cells arrested in mitosis” value in test [3] (MDA-MB-231, 24 h after transfection with 1 μg peptide, arrested peptide-positive cells as percentage of entire population, 12 fields at 200×) was found to be 22.6%; in test [4] (MCF-7, 24 h after transfection with 1 μg peptide, arrested peptide-positive cells as percentage of entire population, 12 fields at 200×) it was 39%. In test [4] (MCF-7 cells arrested by peptide, live cell transfection), the “spindle formation by α-tubulin staining” value is “No spindle formation”.

Source of the values: patent US9567380B1, “Microtubule organizing center (MTOC)-inactivating peptides” (THE RESEARCH FOUNDATION FOR THE STATE UNIVERSITY OF NEW YORK, priority 2015, dated 2017).
